Measured values published in ChEMBL document CHEMBL1201862, “PubChem BioAssay data set” (2004).
Calls of active or inactive are those of the source.

Assays:
[1] = molecular target: Sphingosine 1-phosphate receptor 2 (Homo sapiens, UniProt O95136); experiment: Dose Response Cell Based Assay for Antagonists of the S1P2 Receptor. [Related pubchem assays: 856, 736 ]; assay type: functional
[2] = P. falciparum 3D7-ScDHODH growth inhibitors, dose response, SYBR Green, dry powder samples (AID 1159570); assay type: functional, cell-based;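 note: parasite growth measured after 72 hours of compound exposure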
[3] = P. falciparum Dd2 growth inhibitors, dose response, SYBR Green, dry powder samples (AID 1159566); assay type: functional, cell-based;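 note: potency for growth inhibition with lower SYBR green DNA signal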
[4] = HepG2 cell cytotoxicity, dose response, cytotoxicity control, plate reader, dry powder samples (AID 1159569); assay type: functional, cell-based;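 note: inhibitor potency with signal falling toward the positive control level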
[5] = P. falciparum Dd2 growth inhibitors, dose response, SYBR Green, cherry-picked samples (AID 1159567); assay type: functional, cell-based
[6] = P. falciparum ATP4 D1247Y mutant growth inhibitors, dose response, NITD609-resistant line, SYBR Green, dry powder (AID 1159571); assay type: functional, cell-based;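 note: parasites synchronized at ring stage by sorbitol before testing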
[7] = HepG2 cell cytotoxicity, dose response, cytotoxicity control, cherry-picked samples (AID 1159577); assay type: functional, cell-based
Galanin receptor type 2 = Galanin receptor type 2 (Homo sapiens, UniProt O43603); experiment: Dose Response cell-based high-throughput screening assay to identify antagonists of galanin receptor 2 (GALR2). [Related pubchem assays: 828, 866 ]; assay type: functional
fMet-Leu-Phe receptor = fMet-Leu-Phe receptor (Homo sapiens, UniProt P21462); experiment: FPR ligands, dose response (AID 519); assay type: functional
Cytochrome P450 3A4 = Cytochrome P450 3A4 (Homo sapiens, UniProt P08684);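 note: CYP3A4 tested as one member of a cytochrome P450 panel screen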
[8] = molecular target: Induced myeloid leukemia cell differentiation protein Mcl-1 (Homo sapiens, UniProt Q07820); assay type: functional
Genome polyprotein = Genome polyprotein (Hepatitis C virus, UniProt Q2Q167); experiment: HCV core protein dimerization inhibitors, dose response, biochemical, TR-FRET (AID 2159); design: species or system Hepacivirus hominis;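 note: blocks dimerization of HCV core protein measured by TR-FRET between tagged core106 pairs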
cells [9] = experiment: cells
[10] = HEp-2 cell cytotoxicity, dose response, cytotoxicity control for RSV inhibitor project, HTS (AID 2410); assay type: functional; details: human respiratory syncytial virus
[11] = molecular target: Glucose-6-phosphate 1-dehydrogenase (Homo sapiens, UniProt P11413); experiment: human G6PD enzyme inhibitors, dose response, selectivity assay for P. falciparum G6PD inhibitor project, biochemical, fluorescence (AID 504792); assay type: functional
Major prion protein = Major prion protein (Homo sapiens, UniProt P04156); assay type: functional, cell-based
[12] = molecular target: Mitogen-activated protein kinase 10 (Homo sapiens, UniProt P53779); experiment: Dose response biochemical screening assay for inhibitors of c-Jun N-Terminal Kinase 3 (JNK3). [Related pubchem assays: 746 ]
[13] = molecular target: T1, Microphthalmia-associated transcription factor (Homo sapiens, UniProt O75030); experiment: TRPM1 promoter luciferase signal decrease, dose response, MITF inhibitor project, cell-based, SK-MEL-5, cherry-picked, set 3 (AID 493073); assay type: functional
T1 sequence (O75030 whole entry): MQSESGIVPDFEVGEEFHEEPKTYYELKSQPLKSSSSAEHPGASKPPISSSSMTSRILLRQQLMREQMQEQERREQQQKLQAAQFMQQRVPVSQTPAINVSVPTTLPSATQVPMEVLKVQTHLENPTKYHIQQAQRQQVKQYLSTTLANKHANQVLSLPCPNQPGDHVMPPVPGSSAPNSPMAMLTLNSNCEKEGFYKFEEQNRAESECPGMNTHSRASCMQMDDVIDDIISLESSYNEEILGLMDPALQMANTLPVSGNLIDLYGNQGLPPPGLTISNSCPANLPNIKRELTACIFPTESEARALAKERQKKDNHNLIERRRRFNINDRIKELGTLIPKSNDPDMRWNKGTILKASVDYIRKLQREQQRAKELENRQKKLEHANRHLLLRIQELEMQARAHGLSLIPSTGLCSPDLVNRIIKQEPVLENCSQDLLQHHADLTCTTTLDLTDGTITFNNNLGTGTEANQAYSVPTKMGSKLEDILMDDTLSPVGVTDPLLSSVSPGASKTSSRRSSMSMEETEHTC

[14] = THP-1 cell cytotoxicity, dose response, cytotoxicity control for non-replicating M. tuberculosis project (AID 489025); assay type: functional
Paired box protein Pax-8 = Paired box protein Pax-8 (Homo sapiens, UniProt Q06710); experiment: inhibitors of PAX8-driven TPO luciferase reporter, dose response, RMG-I cells, cherry-pick (AID 687027); assay type: functional, cell-based;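 note: luciferase reporter driven by Pax8 target thyroperoxidase promoter measured by SteadyGlo luminescence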
cells [15] = assay type: functional
[16] = HepG2 cell cytotoxicity, dose response, cytotoxicity control for non-replicating M. tuberculosis project (AID 489018); assay type: functional; details: Mycobacterium tuberculosis
[17] = inhibitors of PGC1a acetylation in cells, dose response, cell-based, cherry-picked samples (AID 720514); assay type: functional;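 note: potency may reflect raised or lowered acetylation signal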
[18] = Vero E6 cell cytotoxicity, dose response, cytotoxicity control for non-replicating M. tuberculosis project, secondary assay (AID 492998); assay type: functional, VeroE6; details: Vero C1008
Caspase-6 = Caspase-6 (Homo sapiens, UniProt P55212); experiment: human caspase-6 inhibitors, dose response, biochemical, VEID-R110 fluorescence, cherry-pick (AID 720632)
Protein Tat = Protein Tat (Human immunodeficiency virus type 1 group M subtype B (isolate HXB2)(HIV-1), UniProt P04608); assay type: functional;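 note: tat binding to TAR RNA read out by fluorescence polarization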
Large T antigen = Large T antigen (Simian virus 40, UniProt P03070); assay type: functional, Betapolyomavirus macacae;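 note: Confirmatory-stage PubChem screen for compounds that inhibit SV40 T antigen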
[19] = molecular target: T2, Adenosylmethionine-8-amino-7-oxononanoate aminotransferase (Mycobacterium tuberculosis, UniProt P9WQ81); experiment: Mycobacterium tuberculosis BioA enzyme inhibitor Measured in Biochemical System Using Plate Reader - 2163-02_Inhibitor_Dose_CherryPick_Activity.; assay type: functional, Mycobacterium tuberculosis UT205
T2 sequence (P9WQ81 whole entry): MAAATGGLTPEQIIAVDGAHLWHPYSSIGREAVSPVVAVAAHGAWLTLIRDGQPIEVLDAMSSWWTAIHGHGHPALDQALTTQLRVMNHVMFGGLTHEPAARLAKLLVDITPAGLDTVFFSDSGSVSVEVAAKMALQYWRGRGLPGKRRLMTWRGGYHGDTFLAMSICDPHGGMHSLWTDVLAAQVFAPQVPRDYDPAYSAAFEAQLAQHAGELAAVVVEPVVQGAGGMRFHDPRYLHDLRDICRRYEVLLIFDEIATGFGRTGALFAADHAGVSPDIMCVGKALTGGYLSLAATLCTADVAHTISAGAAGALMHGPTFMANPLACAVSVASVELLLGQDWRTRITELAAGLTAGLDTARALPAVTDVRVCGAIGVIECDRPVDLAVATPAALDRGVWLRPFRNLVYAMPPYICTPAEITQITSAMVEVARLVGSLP

[20] = cytotoxicity in OVCAR8 ovarian cancer cells, dose response, PAX8 project, cell-based, plate reader, dry powder samples (AID 743197); assay type: functional; details: OVCAR-8

With `O=C(c1sc2cc(C(F)(F)F)cnc2c1-c1ccccc1)N1CCOCC1` the IC50 [1] was > 30 µM (not active).
With `C/C=C/c1ccc([C@H]2[C@@H](CO)N(c3nc(C)c(C)s3)[C@@H]2CNCC(C)C)cc1` the AC50 [2] was 0.915 µM (active), the AC50 [3] was 0.227 µM (active) and the AC50 [4] was 44.1 µM (active). The AC50 [5] was 0.861 µM (active), the AC50 [6] was 0.473 µM (active) and the AC50 [7] was > 39 µM (inactive).
For `O=C(Nc1ccc2[nH]c(-c3cccnc3)nc2c1)C12CC3CC(CC(C3)C1)C2`, the IC50 (Galanin receptor type 2) was > 42 µM (not active).
With `COc1ccccc1NC(=O)N1CCCCN2[C@H](CO)[C@H](c3ccc(C#CC4CC4)cc3)[C@H]2C1` the AC50 [2] was 1.74 µM (active), the AC50 [3] was 1.2 µM (active) and the AC50 [4] was 18.4 µM (active). The AC50 [5] was 2.69 µM (active), the AC50 [6] was 1.74 µM (active) and the AC50 [7] was 20.3 µM (active).
With `O=C(Nc1ccc(F)cc1)c1sccc1S(=O)(=O)Cc1cccc(C(F)(F)F)c1` the IC50 [1] was 18.4 µM (not active).
In the case of `O=C(NC1CCCCC1)c1sc(=S)n2c1[nH]c(=O)c1ccccc12`, the Ki (fMet-Leu-Phe receptor) is reported as 40.6 µM (inactive), the AC50 (Cytochrome P450 3A4) is reported as 0.794 µM (inconclusive) and the IC50 [8] is reported as > 54 µM (active).
For `Brc1cc2[nH]cnc2c2ccccc12`, the IC50 (Genome polyprotein) was > 49.8 µM (not active), the IC50 (cells [9]) was > 138 µM (inactive) and the CC50 [10] was 37.8 µM (active). The IC50 [11] was > 80 µM (inactive) and the IC50 (Major prion protein) was 5.96 µM (active).
For `Cc1cccc(-n2ncc3c(NCc4cccs4)ncnc32)c1`, the IC50 [12] was 72 µM (not active).
For `Cn1nnnc1Sc1ncnc2scc(-c3ccc[nH]3)c12`, the AC50 [13] was 7.32 µM (active), the CC50 [14] was 14.8 µM (active) and the AC50 (Paired box protein Pax-8) was 2.96 µM (active). For the same compound, the IC50 (cells [15]) was 15.2 µM (active), the CC50 [16] was 15.8 µM (active) and the AC50 [17] was 7.84 µM (active). For the same compound, the CC50 [18] was 13 µM (active).
With `O=Cc1ccc(Oc2nc(Cl)ncc2F)cc1` the AC50 (Caspase-6) was 9.13 µM (active).
In the case of `CC(NC(=O)Nc1ccc(O)cc1)(C(F)(F)F)C(F)(F)F`, the IC50 (Protein Tat) is reported as 44.8 µM (inconclusive) and the IC50 (Large T antigen) is reported as 14.3 µM (active).
With `COc1ccc(-c2ccc3c(c2)[C@H]2[C@H](CCN2C(=O)Cc2cccnc2)[C@H](CO)N3C)cc1` the AC50 [19] was 1.57 µM (active) and the AC50 [20] was > 70 µM (inactive).
